This note sets out measurements from PubChem BioAssay (NCI).

Test systems include ACHN renal; HCC-2998 colon; HT29 colon; MALME-3M melanoma; MDA-MB-435; NCI-H23 lung; NCI/ADR-RES ovarian; OVCAR-8 ovarian; SK-MEL-2 melanoma; SK-MEL-28 melanoma.
Test in all cases: NCI anticancer screen, dose series, 48 h

Each structure is given as a SMILES string.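 Protocol summary: plate cells (96-well), add compound at 5 concentrations, incubate 48 h, interpolate endpoints linearly. Definition used: TGI = concentration required for complete inhibition of growth.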 Bounds are passed on as bounds.

For the molecule `O=[N+]([O-])c1ccc(CSc2nn(Cc3ccc([N+](=O)[O-])cc3)cc3ncnc2-3)cc1`, the TGI is greater than 100 µM with ACHN renal; greater than 100 µM with HCC-2998 colon; greater than 100 µM in the experiment with HT29 colon; 65.2 µM with MALME-3M melanoma; 74.7 µM in the experiment on MDA-MB-435; greater than 100 µM in the experiment on NCI-H23 lung. The TGI is greater than 100 µM in the experiment on NCI/ADR-RES ovarian, greater than 100 µM in the experiment with OVCAR-8 ovarian, 49.1 µM with SK-MEL-2 melanoma and 84.5 µM with SK-MEL-28 melanoma.
Regarding `CCO/C(O)=C(/C(=N)N1CCOCC1)C(=O)Nc1cccc(C(F)(F)F)c1`, the TGI with ACHN renal, with HCC-2998 colon, in the experiment on HT29 colon, in the experiment with MALME-3M melanoma, with MDA-MB-435 and in the experiment with NCI-H23 lung was greater than 100 µM in each case. The TGI in the experiment with NCI/ADR-RES ovarian, with OVCAR-8 ovarian, in the experiment with SK-MEL-2 melanoma and with SK-MEL-28 melanoma was greater than 100 µM each time.
Regarding `OC1(c2ccccc2)CC2CCC(C1)N2CCCC(O)(c1ccccc1)c1ccccc1` (stereo not given), the TGI in the experiment with ACHN renal was determined as 31.5 µM; in the experiment with HCC-2998 colon it was 6.25 µM; with HT29 colon it was 9.64 µM; with MALME-3M melanoma, 39.1 µM; in the experiment with MDA-MB-435, 24.8 µM; in the experiment with NCI-H23 lung, 25.7 µM. Also, the TGI in the experiment with NCI/ADR-RES ovarian came to 39.1 µM; in the experiment with OVCAR-8 ovarian, 36.1 µM; in the experiment on SK-MEL-2 melanoma, 37.6 µM; with SK-MEL-28 melanoma it was 32.9 µM.
On to `c1ccc(CN2CCC(=NN3CCCCC3)CC2)cc1`, for which the TGI in the experiment on ACHN renal, with HCC-2998 colon, with HT29 colon, in the experiment on MALME-3M melanoma, in the experiment with MDA-MB-435 and with NCI-H23 lung was greater than 100 µM in each case. Also, the TGI in the experiment on NCI/ADR-RES ovarian, in the experiment on OVCAR-8 ovarian, in the experiment on SK-MEL-2 melanoma and with SK-MEL-28 melanoma was greater than 100 µM throughout.
On to `Cc1cc(C)cc(Nc2nnc3n2S(=O)(=O)c2cc(C)c(Cl)cc2S3)c1`, for which the TGI in the experiment with ACHN renal was 47.8 µM; with HCC-2998 colon, 16.6 µM; in the experiment on HT29 colon, greater than 100 µM; in the experiment on MALME-3M melanoma it was 13.7 µM; with MDA-MB-435, 91.2 µM; in the experiment with NCI-H23 lung, 19.2 µM. Further, the TGI in the experiment with NCI/ADR-RES ovarian was 9.26 µM; in the experiment with OVCAR-8 ovarian it was greater than 100 µM; in the experiment with SK-MEL-2 melanoma, 15.8 µM; in the experiment on SK-MEL-28 melanoma it was greater than 100 µM.
On to `CC12NC(=C(C#N)C#N)C(C#N)=C3NC(N)=C(C#N)C(=C31)Oc1ccccc12` (stereo not given), for which the TGI in the experiment on ACHN renal, with HCC-2998 colon, with HT29 colon, in the experiment on MALME-3M melanoma, in the experiment with MDA-MB-435 and in the experiment with NCI-H23 lung was greater than 100 µM throughout. The TGI with NCI/ADR-RES ovarian was greater than 100 µM; in the experiment on OVCAR-8 ovarian it was greater than 100 µM; with SK-MEL-2 melanoma, greater than 80.9 µM; in the experiment on SK-MEL-28 melanoma, greater than 100 µM.
As for `CN(C)CCCNC(=O)N/N=C/c1ccc(O)cc1`, the TGI in the experiment on ACHN renal, in the experiment with HCC-2998 colon, in the experiment on HT29 colon, in the experiment on MALME-3M melanoma, in the experiment with MDA-MB-435 and in the experiment on NCI-H23 lung was greater than 100 µM throughout. The TGI with NCI/ADR-RES ovarian, with OVCAR-8 ovarian, with SK-MEL-2 melanoma and in the experiment with SK-MEL-28 melanoma was greater than 100 µM throughout.
`COc1ccc(C=Nc2ccc(-c3nc4ccccc4s3)cc2)cc1OC`: the TGI was 70.5 µM with ACHN renal; 40 µM with HCC-2998 colon; greater than 100 µM in the experiment with HT29 colon; 89.2 µM in the experiment with MALME-3M melanoma; greater than 100 µM in the experiment with MDA-MB-435; 90.6 µM in the experiment on NCI-H23 lung. Further, the TGI is 89.8 µM with NCI/ADR-RES ovarian, greater than 100 µM with OVCAR-8 ovarian, 48.1 µM in the experiment on SK-MEL-2 melanoma and greater than 100 µM in the experiment on SK-MEL-28 melanoma.
As to `O=[N+]([O-])c1cc(C2(N3CCCCC3)CCCCC2)sc1Br`, the TGI came to 11.5 µM in the experiment with ACHN renal; 3.41 µM with HCC-2998 colon; 15.4 µM with HT29 colon; 20 µM in the experiment on MALME-3M melanoma; 17 µM with MDA-MB-435; 26.5 µM in the experiment with NCI-H23 lung. The TGI was 28.2 µM with NCI/ADR-RES ovarian, 24 µM in the experiment on OVCAR-8 ovarian, 21.4 µM in the experiment with SK-MEL-2 melanoma and 23.9 µM with SK-MEL-28 melanoma.
With `c1ccc(-c2cnc(SC(c3ccccc3)c3ccccc3)[nH]2)cc1`, the TGI in the experiment on ACHN renal was greater than 100 µM; in the experiment on HCC-2998 colon, 35.8 µM; in the experiment on HT29 colon it was greater than 100 µM; in the experiment on MALME-3M melanoma, 73.9 µM; in the experiment on MDA-MB-435 it was greater than 100 µM; with NCI-H23 lung, 52.5 µM. Besides, the TGI was 85.4 µM in the experiment with NCI/ADR-RES ovarian, greater than 100 µM in the experiment on OVCAR-8 ovarian, 53.2 µM in the experiment with SK-MEL-2 melanoma and greater than 100 µM with SK-MEL-28 melanoma.
Take `CN(C)c1ccc(/C=C/C(=O)c2cc(C(C)(C)C)c(O)c(C(C)(C)C)c2)cc1`: the TGI in the experiment with ACHN renal is greater than 100 µM; with HCC-2998 colon, 3.67 µM; with HT29 colon, greater than 30.2 µM; with MALME-3M melanoma, greater than 100 µM; with MDA-MB-435 it was 1.87 µM; in the experiment with NCI-H23 lung, greater than 100 µM. Moreover, the TGI is 6.64 µM in the experiment with NCI/ADR-RES ovarian, greater than 100 µM in the experiment on OVCAR-8 ovarian, greater than 100 µM in the experiment with SK-MEL-2 melanoma and greater than 100 µM in the experiment with SK-MEL-28 melanoma.
`COc1ccc2[nH]c3cc4c(=O)c5cc(OC)ccc5[nH]c4cc3c(=O)c2c1`: the TGI in the experiment on ACHN renal, in the experiment on HCC-2998 colon, with HT29 colon, in the experiment on MALME-3M melanoma, in the experiment with MDA-MB-435 and in the experiment on NCI-H23 lung was greater than 100 µM throughout. The TGI with NCI/ADR-RES ovarian, in the experiment with OVCAR-8 ovarian, with SK-MEL-2 melanoma and with SK-MEL-28 melanoma was greater than 100 µM each time.
`C=C1C(=O)OC2C1CCC(=C)C1CC(O)C(=C)C12` (stereo not given): the TGI in the experiment with ACHN renal amounted to 7.99 µM; with HCC-2998 colon, 27.9 µM; in the experiment with HT29 colon, 19.3 µM; in the experiment on MALME-3M melanoma, 30.1 µM; with MDA-MB-435, 58.8 µM; with NCI-H23 lung it was 34 µM. Moreover, the TGI in the experiment on NCI/ADR-RES ovarian worked out at 54.9 µM; in the experiment on OVCAR-8 ovarian, 60.4 µM; in the experiment on SK-MEL-2 melanoma, 32.7 µM; with SK-MEL-28 melanoma it was 32 µM.
Regarding `CCCNC1=C2C[C@@H](C)C[C@@H](OC)[C@@H](OC(=O)CCCN)[C@H](C)/C=C(\C)[C@@H](OC(N)=O)[C@H](OC)/C=C\C=C(/C)C(=O)NC(=CC1=O)C2=O`, the TGI in the experiment with ACHN renal was determined as 37.6 µM; in the experiment with HCC-2998 colon it was 38.1 µM; with HT29 colon, 22.9 µM; with MALME-3M melanoma, 28.4 µM; in the experiment with MDA-MB-435 it was 32.2 µM; in the experiment with NCI-H23 lung, 29.4 µM. Besides, the TGI came to 86.2 µM in the experiment on NCI/ADR-RES ovarian, 43.7 µM in the experiment with OVCAR-8 ovarian, 30.9 µM in the experiment with SK-MEL-2 melanoma and 36.1 µM in the experiment on SK-MEL-28 melanoma.
As to `CC(NC(=O)Cc1ccc(OP(=O)(OCc2ccc([N+](=O)[O-])o2)N(C)CCCCCl)cc1)c1ccc(OCC2CCCCC2)c(C(N)=O)c1` (stereo not given), the TGI worked out at 37.1 µM with ACHN renal; 2.98 µM in the experiment on HCC-2998 colon; 3.18 µM in the experiment on HT29 colon; 4.42 µM in the experiment on MALME-3M melanoma; 3.95 µM in the experiment on MDA-MB-435; 5.12 µM in the experiment with NCI-H23 lung. Further, the TGI was determined as 94.3 µM in the experiment with NCI/ADR-RES ovarian, 16 µM with OVCAR-8 ovarian, 5.89 µM in the experiment with SK-MEL-2 melanoma and 3.33 µM with SK-MEL-28 melanoma.
Regarding `O=C(O)c1cc2ccccc2c(Cc2c(O)c(C(=O)O)cc3ccccc23)c1O`, the TGI in the experiment with ACHN renal, in the experiment with HCC-2998 colon, in the experiment with HT29 colon, in the experiment with MALME-3M melanoma, with MDA-MB-435 and in the experiment with NCI-H23 lung was greater than 100 µM throughout. For the same molecule, the TGI in the experiment with NCI/ADR-RES ovarian, in the experiment with OVCAR-8 ovarian, with SK-MEL-2 melanoma and in the experiment on SK-MEL-28 melanoma was greater than 100 µM each time.
For `O=c1oc2ccc([N+](=O)[O-])cc2nc1/C=C(\O)c1ccccc1`, the TGI in the experiment with ACHN renal, in the experiment on HCC-2998 colon, with HT29 colon, with MALME-3M melanoma, with MDA-MB-435 and in the experiment on NCI-H23 lung was greater than 100 µM in each case. Besides, the TGI in the experiment with NCI/ADR-RES ovarian was greater than 100 µM; in the experiment on OVCAR-8 ovarian, greater than 100 µM; in the experiment on SK-MEL-2 melanoma it was 98.2 µM; in the experiment with SK-MEL-28 melanoma it was greater than 100 µM.
Regarding `COc1ccc2c(c1)CC[C@@H]1[C@@H]2CC[C@]2(C)/C(=N/OCCN3CCCC3)CC[C@@H]12`, the TGI with ACHN renal amounted to 15.5 µM; in the experiment with HCC-2998 colon, 3.49 µM; in the experiment with HT29 colon it was 3.96 µM; with MALME-3M melanoma, 3.17 µM; with MDA-MB-435, 2.43 µM; in the experiment with NCI-H23 lung it was 19.5 µM. Further, the TGI with NCI/ADR-RES ovarian came to 28.7 µM; with OVCAR-8 ovarian it was 12.4 µM; in the experiment on SK-MEL-2 melanoma, 4.2 µM; in the experiment with SK-MEL-28 melanoma, 2.82 µM.
For the molecule `Cc1cccc2c(N)c3cccc(C(=O)NCC[N+](C)(C)Cc4ccc([N+](=O)[O-])n4C)c3nc12`, the TGI in the experiment with ACHN renal was 56.1 µM; with HCC-2998 colon it was 55.8 µM; in the experiment on HT29 colon, 59 µM; in the experiment with MALME-3M melanoma it was 41.3 µM; in the experiment with MDA-MB-435 it was greater than 85.2 µM; in the experiment on NCI-H23 lung it was greater than 65.1 µM. In addition, the TGI with NCI/ADR-RES ovarian was 98.9 µM; in the experiment on OVCAR-8 ovarian it was 64.1 µM; with SK-MEL-2 melanoma, greater than 100 µM; in the experiment on SK-MEL-28 melanoma, greater than 100 µM.
